Measured values reported in patent US20170165286A1, “COMPOSITIONS AND METHODS FOR TREATING DIABETES AND LIVER DISEASES” (Cempra Pharmaceuticals, Inc., priority 2014, published 2017).
“Also recorded” adds a separate entry of the source.

Columns and labels:
[1] = test system: STAM mice; assay: STAM model: serum biochemistry (HPLC); assay type: in vivo
Experimental: (§1) NASH-HCC (STAM™) Model. C57BL/6 (15-day-pregnant female) mice are obtained from Charles River Laboratories Japan (Kanagawa, Japan). Male pups are selected for the study. NASH is induced in male mice by a single subcutaneous injection of 200 μg streptozotocin (STZ, Sigma-Aldrich, USA) solution 2 days after birth, followed by feeding a HFD (57 kcal % fat, cat#: HFD32, CLEA Japan, Japan) beginning at 4 weeks of age. At 5 weeks of age, mice are divided into a control group and one or more treated group (generally 8 mice per group). Animals are sacrificed at 9 weeks of age, and biochemical, histological, and gene expression analyses are performed.
(§2) During weeks 5-9 (starting at day 35±2), test compound is administered (generally orally) at various doses diluted to 10 mL/kg and according to various dosing protocols to treatment groups (8 mice each) while a second group (8 mice) is administered vehicle only. Animals are sacrificed at 9 weeks.
Measurement of serum biochemistry. For serum biochemistry, blood is collected in polypropylene tubes without anticoagulant and incubated at room temperature for 30 minutes, at 4° C. for 1 hour, and then centrifuged at 1,000×g for 15 minutes at 4° C. The supernatant is collected and stored at −80° C. until use. Serum triglyceride, HDL-cholesterol, LDL-cholesterol, VLDL-cholesterol, and chylomicron ([…]) are quantified by HPLC at Skylight Biotech Inc. (Japan).
(§3) Illustrative dose response test groups. Group 1-Normal. Eight normal mice are fed with a normal diet ad libitum without any treatment until 9 weeks of age. Group 2-Vehicle. Eight NASH mice are orally administered vehicle (0.5% w/v methylcellulose+0.2% Tween®80) in a volume of 10 mL/kg twice daily from 5 to 9 week of age. Group 3-solithromycin 5 mg/kg. Eight NASH mice are orally administered vehicle supplemented with solithromycin at a dose of 5 mg/kg in the morning and the vehicle in the evening (5 mg/kg/day) from 5 to 9 weeks of age. Group 4-solithromycin 10 mg/kg. Eight NASH mice are orally administered vehicle supplemented with solithromycin at a dose of 10 mg/kg twice daily (20 mg/kg/day) from 5 to 9 weeks of age. Group 5-solithromycin 25 mg/kg. Eight NASH mice are orally administered vehicle supplemented with solithromycin at a dose of 25 mg/kg twice daily (50 mg/kg/day) from 5 to 9 weeks of age. Group 6-solithromycin 50 mg/kg. Eight NASH mice are orally administered vehicle supplemented with solithromycin at a dose of 50 mg/kg once daily (50 mg/kg/day) from 5 to 9 weeks of age.

[2] = test system: STAM mice; assay: STAM model: liver immunohistochemistry (F4/80, Gr-1, CK-18); assay type: in vivo; settings: for F4/80-positive area (%) a measure of macrophage density: STAM mice liver
Experimental: as §1, §2
For immunohistochemistry (a measure of inflammation), sections are cut from frozen liver tissues embedded in Tissue-Tek O.C.T. compound and fixed in acetone. Endogenous peroxidase activity is blocked using 0.03% H2O2 for 5 minutes, followed by incubation with Block Ace (Dainippon Sumitomo Pharma, Japan) for 10 minutes. The sections were incubated with a 200-fold dilution of anti-F4/80 antibody (BMA Biomedicals, Switzerland), a 50-fold dilution of anti-CK-18 antibody (LifeSpan BioSciences, USA) or anti-Gr-1 antibody (culture supernatant) over night at 4° C. F4/80 is a marker for macrophage and Kupffer cells in the liver; CK-18 antibody measures the cytoskeleton in damaged hepatocytes; and anti-Gr-1 antibody measures the neutrophil response. After incubation with secondary antibody (HRP-Goat anti-rat antibody, Invitrogen, USA), enzyme-substrate reactions are performed using 3, 3′-diaminobenzidine/H2O2 solution (Nichirei, Japan).
For quantitative analysis of fibrosis area, bright field images of Sirius red-stained sections are captured around the central vein using a digital camera (DFC280; Leica, Germany) at 200-fold magnification, and the positive areas in 5 fields/section are measured using ImageJ software (National Institute of Health, USA). For quantitative analysis of inflammation area, bright field images of F4/80-immunostained sections are captured around the central vein using a digital camera (DFC280; Leica, Germany) at 200-fold magnification, and the positive areas in 5 fields/section are measured using ImageJ software (National Institute of Health, USA).
as §3

[3] = 5 mg/kg q.d., listed as SOLI, 5 mg/kg
[4] = 10 mg/kg b.i.d., listed as SOLI, 10 mg/kg
[5] = 25 mg/kg b.i.d., listed as SOLI, 25 mg/kg

CC[C@H]1OC(=O)[C@@](C)(F)C(=O)[C@H](C)[C@@H](O[C@@H]2O[C@H](C)C[C@H](N(C)C)[C@H]2O)[C@](C)(OC)C[C@@H](C)C(=O)[C@H](C)[C@H]2N(CCCCn3cc(-c4cccc(N)c4)nn3)C(=O)O[C@]12C [solithromycin]
Serum HDL-cholesterol ([1]; 5 mg/kg q.d., 5 mg/kg): no statistically significant differences
Serum VLDL-cholesterol ([1]; 5 mg/kg q.d., 5 mg/kg): no statistically significant differences
Serum chylomicron ([1]; 5 mg/kg q.d., 5 mg/kg): no statistically significant differences
Serum triglyceride ([1]; 5 mg/kg q.d., 5 mg/kg): no statistically significant differences
Serum HDL-cholesterol [1, 3]: 88.4 ± 14.2 mg/dL
Serum VLDL-cholesterol [1, 3]: 9.8 ± 5.3 mg/dL
Serum chylomicron [1, 3]: 1.5 ± 1.2 mg/dL
Serum triglyceride [1, 3]: 133.8 ± 110.1 mg/dL
Serum HDL-cholesterol ([1]; 10 mg/kg b.i.d., 10 mg/kg): no statistically significant differences
Serum VLDL-cholesterol ([1]; 10 mg/kg b.i.d., 10 mg/kg): no statistically significant differences
Serum chylomicron ([1]; 10 mg/kg b.i.d., 10 mg/kg): no statistically significant differences
Serum triglyceride ([1]; 10 mg/kg b.i.d., 10 mg/kg): no statistically significant differences
Serum HDL-cholesterol [1, 4]: 89.3 ± 21.5 mg/dL
Serum VLDL-cholesterol [1, 4]: 9.7 ± 3.8 mg/dL
Serum chylomicron [1, 4]: 1.4 ± 0.6 mg/dL
Serum triglyceride [1, 4]: 116.5 ± 58.8 mg/dL
Serum HDL-cholesterol ([1]; 25 mg/kg b.i.d., 25 mg/kg): no statistically significant differences
Serum VLDL-cholesterol ([1]; 25 mg/kg b.i.d., 25 mg/kg): significantly decreased; also recorded: Statistically significant reduced
Serum chylomicron ([1]; 25 mg/kg b.i.d., 25 mg/kg): significantly decreased
Serum triglyceride ([1]; 25 mg/kg b.i.d., 25 mg/kg): significantly decreased; also recorded: Statistically significant reduced
Serum HDL-cholesterol [1, 5]: 97.9 ± 26.3 mg/dL
Serum VLDL-cholesterol [1, 5]: 5.4 ± 3.2 mg/dL
Serum chylomicron [1, 5]: 0.7 ± 0.4 mg/dL
Serum triglyceride [1, 5]: 46.8 ± 47.8 mg/dL
F4/80-positive area (%) a measure of macrophage density ([2]; 5 mg/kg): 10.83 ± 1.38%
F4/80-positive area (%) a measure of macrophage density ([2]; 10 mg/kg): 9.33 ± 1.31%
F4/80-positive area (%) a measure of macrophage density ([2]; 25 mg/kg): 10.63 ± 2.11%
Area of F4/80-positive macrophages compared to vehicle group ([2]; STAM mice, Groups 3-6): no significant differences
Gr-1 positive cells (neutrophil infiltration) in liver compared to vehicle group ([2]; STAM mice, all doses): decreased; also recorded: reduced
CK-18 immunostaining compared to vehicle group ([2]; STAM mice, any doses): no obvious changes
